This note sets out measurements from patent US4168379A, “Pyridin-3-ols” (BASF Aktiengesellschaft, priority 1977, dated 1979).

The nature of series [1]: acute toxicity (LD 50, Probit analysis, death within 24 hours). The conditions noted are these: mouse, in vivo; for LD50 at 24 h: ip, intraperitoneal, female Swiss mice; for selectivity ratio: footnote 7 formula given as drawing 13, values correspond to LD 50 (mice, i.p.) / ED 50 (rats, oral), read-out: Therapeutic range. The method, then: The acute toxicity was determined on groups of 10 or 20 female Swiss mice, weighing 20-26 g, the compounds being administered intraperitoneally.

A short description of the next series: in vivo. Particulars: rat, in vivo; oral, rats; dose at which Δ% was determined; read-out: Maximum action: Dose (highest non-toxic dose). The series is classed as in vivo, rats (Sprague Dawley strain). How it is done:
(§1) To determine the anti-arrhythmic activity, the drugs were administered orally to rats (Sprague Dawley strain, weight […]) 45 minutes before the start of the narcosis.
(§2) The animals were narcotized with thiobutabartital (100 mg/kg administered intraperitoneally). The arrhythmogenic substance used was aconitine, which was administered by intravenous infusion (at a rate of 0.005 mg/kg. min) 60 minutes after administration of the test substance. In the case of untreated animals (N=30), arrhythmias occurred after an average of 3.7±0.9 minutes, the commencement of which can be delayed by anti-arrhythmic agents, the delay depending on the dosage.
(§3) For a quantitative evaluation of the linear relation between log dose (mg/kg) of the test substances and the relative prolongation of the duration of aconitine infusion (Δ%), the dose which extended the duration of infusion by 50% (ED 50) was determined. The prior art anti-arrhythmic agent quinidine served as a comparative substance.

The test system of series [2] is Aconitine-induced arrhythmia. The experiment in a line: animal or person. The format is in vivo, rats (Sprague Dawley strain). The conditions noted are these: for ED50: Rattus norvegicus, po, 1 h, read-out: ED 50: dose, administered orally, which prolongs the duration of aconitine infusion by 50%; for antiarrhythmic action (in words): as such and/or as acid addition salts. The method, then:
as §1, §2, §3

Molecules are shown by their SMILES.

Regarding `Cc1nc(Cc2ccccc2)c2c(c1OCCCNC(C)C)COC2` [Example IV, 4-benzyl-6-methyl-1,3-dihydro-furo[3,4-c]pyridin-7-yl 3-isopropylamino-propyl ether], in series [1], the LD50 at 24 h came to 139 mg/kg and the selectivity ratio was 4.81. Also, the MTD in “in vivo” came to 215 mg/kg. Further, in series [2], the ED50 turned out to be 28.9 mg/kg and the “antiarrhythmic action (in words)” value was “have an antiarrhythmic action”.
For the compound `CN(C)CCCOc1c(Cc2ccccc2)nc(Cc2ccccc2)c2c1COC2` [III, 4,6-dibenzyl-1,3-dihydrofuro[3,4-c]pyridin-7-yl 3-dimethylaminopropyl ether], in series [1], the LD50 at 24 h was 98.3 mg/kg and the selectivity ratio was found to be 6.6. In addition, in “in vivo”, the MTD was 215 mg/kg. For the same compound, in series [2], the ED50 turned out to be 14.9 mg/kg and the “antiarrhythmic action (in words)” value is on record as “have an antiarrhythmic action”.
The compound `C=C[C@H]1C[N@@]2CC[C@H]1C[C@@H]2[C@@H](O)c1ccnc2ccc(OC)cc12` [Quinidine, quinidine, reference compound] had an LD50 at 24 h in series [1] of 180 mg/kg. In series [2], the ED50 came out at 42.3 mg/kg.
Regarding `Cc1nc(Cc2ccccc2)c2c(c1OCCCCNC(C)C)COC2` [V, 4-benzyl-6-methyl-1,3-dihydro-furo[3,4-c]pyridin-7-yl 4-isopropylaminobutyl ether], in series [1], the LD50 at 24 h was 99.3 mg/kg and the selectivity ratio was determined as 17.5. Further, the MTD in the series “in vivo” was 100 mg/kg. Besides, in series [2], the ED50 was 5.66 mg/kg and the “antiarrhythmic action (in words)” value was “have an antiarrhythmic action”.
In the same order, the values of `Cc1nc(Cc2ccccc2)c2c(c1OCCC(C)CCNC(C)C)COC2` (centres unmarked) [VI, 4-benzyl-6-methyl-1,3-dihydrofuro[3,4-c]pyridin-7-yl 5-isopropylamino-(3-methylpentyl) ether] are 82.2 mg/kg, 6.74, 100 mg/kg, 12.2 mg/kg and “have an antiarrhythmic action”.
On to `CCN(CC)CCC(C)CCOc1c(C)nc(Cc2ccccc2)c2c1COC2` (centres unmarked) [VII, 4-benzyl-6-methyl-1,3-dihydro-furo[3,4-c]pyridin-7-yl 5-diethylamino-(3-methylpentyl) ether], for which, in series [1], the LD50 at 24 h stood at 88.9 mg/kg and the selectivity ratio was found to be 7.86. Also, in the series “in vivo”, the MTD was 100 mg/kg. Moreover, in series [2], the ED50 came to 11.3 mg/kg and the “antiarrhythmic action (in words)” value is recorded as “have an antiarrhythmic action”.
For the compound `Cc1nc(Cc2ccccc2)c2c(c1OCCCCNC(C)(C)C)COC2` [VIII, 4-benzyl-6-methyl-1,3-dihydrofuro[3,4-c]pyridin-7-yl 4-tert.-butylamino-butyl ether], in series [1], the LD50 at 24 h came out at 73.9 mg/kg and the selectivity ratio stood at 7.95. For the same compound, the MTD in the series “in vivo” stood at 46.4 mg/kg. In series [2], the ED50 worked out at 9.29 mg/kg and the “antiarrhythmic action (in words)” value is recorded as “have an antiarrhythmic action”.

The term LD50 denotes the dose at which mortality reaches 50%. Higher therefore signals a less toxic substance.
